“And” between values parts separate entries of the source, which are not always exact repeats. Identical values can stand only once.
Columns and labels:
[1] = DSC of hydrated cationic lipid dispersions and binary phase diagrams; type: physicochemical; details: for melting transition Tm (solid-liquid crystalline): hydrated dispersions, DSC heating 30° C./h
Method: (§1) Chloroform solutions of cationic lipids were mixed in glass vials at the desired ratios, solvent was removed with a N2 stream and, subsequently, high vacuum. The lipid mixtures were hydrated in PBS (50 mM phosphate buffer, 100 mM NaCl, pH 7.2) overnight at room temperature and vortex-mixed for several minutes; then they were subjected to several cycles of freezing and thawing. Samples were subsequently equilibrated overnight at room temperature before measurement.
DSC measurements were performed using a VP-DSC Microcalorimeter (MicroCal Inc., Northampton, Mass.) at 30° C./h. Thermograms were analyzed using OriginLab (Northampton, Mass.) software. The onset and the completion temperatures of the phase transitions needed for the construction of the phase diagram were determined by the intersections of the peak slopes with the baseline on the thermograms. The maximums of the heat capacity curves were taken as the phase transition temperatures of the pure components. For asymmetric or split line shapes of the composite aggregates, the transition temperature was defined as that temperature at which the area of the endotherm was divided into equal halves.

[2] = Synchrotron small-angle X-ray diffraction (SAXD) on heating; type: physicochemical; details: SAXD heating scans 20-90° C.
Method: as §1
Measurements were performed at Argonne National Laboratory, Advanced Photon Source, DND-CAT (beamline 5-IDD) and BioCAT (beamline 18-ID), using 12 keV X-rays, as previously described [1 R. Koynova, R. C. MacDonald, Mixtures of Cationic Lipid O-Ethylphosphatidylcholine With Membrane Lipids and DNA: Phase Diagrams, Biophys. J. 85 (2003) 2449-2465]. The lipid concentration of the dispersions was 20 wt %. Samples were filled into glass capillaries (Charles Supper Co., Natick, Mass.) and flame-sealed. A Linkam thermal stage (Linkam Sci Instruments, Surrey, England) provided temperature control. Linear heating and cooling scans were performed at rates of 1-5° C./min. Exposure times were typically 0.5 sec. Data were collected using a MAR-CCD detector. Sample-to-detector distance was 1.8-2 m. […] Products of lipid degradation were not detected in these samples, and radiation damage of the lipids was not evident from their X-ray patterns.

[3] = tested on: Human umbilical artery endothelial cells (HUAECs); test: Transfection of HUAECs with lipoplexes, β-galactosidase reporter assay; type: cell-based; details: HUAEC cells in vitro; CMV-β-galactosidase plasmid; β-galactosidase activity 24 h after transfection
Method: Human umbilical artery endothelial cells (HUAECs) were obtained from Cambrex (Walkersville, Md.) were and maintained in EGM-2 MV containing 5% fetal bovine serum (FBS) (Cambrex) at 37° C. with 5% CO2. At confluence, the cells were passaged using 0.25 mg/ml Trypsin/EDTA (Cambrex) and were used at passages 5-10 for these experiments. It is noted that human endothelial cells, and particularly HUAECs, are known in the art to be difficult to transfect (see, Teifel, et al., Endothelium, New York, 5, 21-35 (1997); Krotz et al., J. Vasc. Res., 40:425-434 (2003); and Tanner et al., Cardiovascular Research, 35:522-528 (1997)) all of which are herein incorporated by reference. For example, it has been reported that the level of transfection for a reporter gene in human umbilical vein endothelial cells is less than 1% of that of HeLa cells (Edgell et al., BioTechniques, 25:264-272 (1998), herein incorporated by reference).
The cells were seeded in 96-well plates at 24 h before transfection at densities appropriate to give about 80% confluence at the time of transfection. CMV-β-galactosidase plasmid was purchased from Clontech Laboratories Inc. (Palo Alto, Calif.) and propagated and purified by Bayou Biolabs (Harahan, La.). […]

Row | Structure (SMILES) | melting transition Tm (solid-liquid crystalline) [1] [°C] | temperature of solid-liquid crystalline (lamellar) transition on heating [2] | phase at physiological temperature (37° C.) according to phase diagram [1] | transfection activity [3]
1 | CCCCCCCCCCCCCC[N+](C)(C)CCCCCCCCCCCCCC.[Br-] [diC14DAB, Ditetradecyldimethylammonium-bromide] | 26 | 25 °C and ~26 °C | – | –
2 | CCCCCCCCCCCCCCCCCC[N+](C)(C)CCCCCCCCCCCCCCCCCC.[Br-] [diC18DAB, dioctadecyldimethylammonium-bromide] | ~50 | 47 °C | solid phase | –
3 | CCCCCCCCCCCCCCCC(=O)OC[C@H](COP(=O)(OCC)OCC[N+](C)(C)C)OC(=O)CCCCCCCCCCCCCCC (some centres unmarked) [EDPPC] | 42 | – | solid phase | still transfects DNA into cells
4 | CCCCCCCCCCCCCC(=O)OC[C@H](COP(=O)(OCC)OCC[N+](C)(C)C)OC(=O)CCCCCCCCCCCCC (some centres unmarked) [EDMPC] | 24 | – | liquid crystalline phase | better transfection agents than EDPPC

From patent US20090048198A1, “COMPOSITIONS AND METHODS FOR NUCLEIC ACID DELIVERY SYSTEMS” (Northwestern University, priority 2007, published 2009)
